From US12162858B2, “Quinoline derivatives as inhibitors of AXL/MER RTK and CSF1R” (QURIENT CO., LTD., priority 2018, dated 2024)

How the values were obtained:
CSF1R (M-NFS-60 cells) = assay: Cell Titer-Glo viability assay using M-NFS-60 cells; assay type: cell-based; details: Mus musculus, read-out: Cellular CSF1R activity by M-NFS-60 viability assay (IC50 activity range)
Outline: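 M-NFS-60 cells grown with 62 ng/ml recombinant human M-CSF, seeded at 2×10^5 cells/well and incubated at 37 °C/5% CO2. Compounds given as 3-fold serial dilutions (10 doses); viability read by CellTiter-Glo luminescence, sigmoidal dose-response fit.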

Axl = molecular target: T1, Axl (Homo sapiens, UniProt P30530); assay: LanthaScreen Eu kinase binding assay for Axl; details: read-out: Axl kinase binding activity (Kd)
T1 sequence (P30530 26-894): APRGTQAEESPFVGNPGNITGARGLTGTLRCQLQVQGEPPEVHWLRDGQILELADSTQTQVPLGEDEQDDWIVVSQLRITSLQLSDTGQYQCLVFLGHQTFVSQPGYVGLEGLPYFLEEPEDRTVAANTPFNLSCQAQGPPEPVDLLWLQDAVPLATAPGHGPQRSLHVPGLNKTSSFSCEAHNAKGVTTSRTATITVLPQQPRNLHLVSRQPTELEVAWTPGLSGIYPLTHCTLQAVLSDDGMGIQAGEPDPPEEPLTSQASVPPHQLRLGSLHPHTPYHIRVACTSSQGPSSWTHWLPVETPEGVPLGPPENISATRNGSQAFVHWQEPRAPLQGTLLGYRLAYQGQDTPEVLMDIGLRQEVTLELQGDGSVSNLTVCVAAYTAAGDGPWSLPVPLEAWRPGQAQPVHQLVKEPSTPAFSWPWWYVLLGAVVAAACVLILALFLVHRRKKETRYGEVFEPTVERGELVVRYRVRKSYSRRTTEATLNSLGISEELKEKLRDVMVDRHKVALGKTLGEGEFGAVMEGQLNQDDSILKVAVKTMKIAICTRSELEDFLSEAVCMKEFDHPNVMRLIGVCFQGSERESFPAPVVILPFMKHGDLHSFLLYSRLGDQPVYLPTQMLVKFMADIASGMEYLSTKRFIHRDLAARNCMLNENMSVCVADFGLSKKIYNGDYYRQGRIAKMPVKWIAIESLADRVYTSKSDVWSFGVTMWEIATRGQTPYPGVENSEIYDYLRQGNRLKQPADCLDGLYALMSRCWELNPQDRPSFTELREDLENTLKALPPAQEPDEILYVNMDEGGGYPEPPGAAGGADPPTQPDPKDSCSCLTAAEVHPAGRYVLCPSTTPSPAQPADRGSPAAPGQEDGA
Outline: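 Kd values come from control-normalized FRET loss, referenced to DMSO vehicle wells, after 1 h at room temperature. Each compound was serially diluted over eight steps in DMSO and competed against Tracer 236 (Alexa Fluor 647) for the kinase, which was tagged by a Eu anti-GST antibody.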

Kd (Axl) [nM] | SMILES | IC50 (CSF1R (M-NFS-60 cells)) [nM]
< 100 | COc1cc2nccc(Oc3ccc(NC(=O)c4nn(C5CC5)cc4OCCC(F)(F)F)nc3)c2cc1OC [Compound 170] | < 1000
< 100 | COCCOc1cn(C2CC2)nc1C(=O)Nc1ccc(Oc2ccnc3cc(OC)c(OC)cc23)nn1 [Compound 171] | ≥ 10000
≥ 500 | COc1cc2nccc(Oc3ccc(NC(=O)c4nn(C5CC5)cc4OCC4CNC4)nn3)c2cc1OC [Compound 172] | ≥ 10000
< 100 | COc1cc2nccc(Oc3ccc(NC(=O)c4nn(C5CC5)cc4OCCC(F)(F)F)nn3)c2cc1OC [Compound 173] | 1000 to 10000
≥ 500 | COc1cc2nccc(Oc3ccc(NC(=O)c4nn(CC(C)O)cc4OCC4CN(C)C4)nc3)c2cc1OC (stereo not shown) [Compound 174] | ≥ 10000
< 100 | COc1cc2nccc(Oc3ccc(NC(=O)c4nn(CC(C)O)cc4OCC(F)F)nc3)c2cc1OC (stereo not shown) [Compound 175] | < 1000
100 to 500 | COc1cc2nccc(Oc3ccc(NC(=O)c4nc(CCC(F)(F)F)oc4CCC4CCC4)nc3)c2cc1OC [Compound 176] | 1000 to 10000
< 100 | CCCn1cc(OCCN(C)C)c(C(=O)Nc2ccc(Oc3ccnc4cc(OC)c(OC)cc34)cn2)n1 [Compound 177] | 1000 to 10000
< 100 | COc1cc2nccc(Oc3ccc(NC(=O)c4cc(C5CC5)cnc4OCC(F)(F)F)nc3)c2cc1OC [Compound 178] | < 1000
100 to 500 | COc1cc2nccc(Oc3ccc(NC(=O)c4sc(C5CC5)cc4OCC(F)(F)F)nc3)c2cc1OC [Compound 179] | < 1000

Continued, compound first:

SMILES | Kd (Axl) [nM] | IC50 (CSF1R (M-NFS-60 cells)) [nM]
COc1cc2nccc(Oc3ccc(NC(=O)c4nn(C5CCOC5)cc4OCC(F)(F)F)cc3)c2cc1OC (stereo not shown) [Compound 62] | < 100 | 1000 to 10000
COc1cc2nccc(Oc3ccc(NC(=O)c4nn(CC(C)N)cc4OCC(F)(F)F)nc3)c2cc1OC (stereo not shown) [Compound 63] | < 100 | 1000 to 10000
COc1cc2nccc(Oc3ccc(NC(=O)c4nn(CC(C)(F)F)cc4OCC(F)(F)F)nc3)c2cc1OC [Compound 64] | < 100 | 1000 to 10000
COc1cc2nccc(Oc3ccc(NC(=O)c4nn(CCOC5CCC5)cc4OCC(F)(F)F)nc3)c2cc1OC [Compound 65] | < 100 | 1000 to 10000
COc1cc2nccc(Oc3ccc(NC(=O)c4nn(C5COC5)cc4OCC(F)(F)F)nc3)c2cc1OC [Compound 66] | < 100 | 1000 to 10000
COc1cc2nccc(Oc3ccc(NC(=O)c4nn(CCO)cc4OCC(F)(F)F)nc3)c2cc1OC [Compound 67] | < 100 | 1000 to 10000
COc1cc2nccc(Oc3ccc(NC(=O)c4nn(CCCN)cc4OCC(F)(F)F)nc3)c2cc1OC [Compound 68] | < 100 | 1000 to 10000
COc1cc2nccc(Oc3ccc(NC(=O)c4nn(C5CCCCC5)cc4OCC(F)(F)F)nc3)c2cc1OC [Compound 69] | < 100 | 1000 to 10000
COc1cc2nccc(Oc3ccc(NC(=O)c4nn(C5CCNC5)cc4OCC(F)(F)F)nc3)c2cc1OC (stereo not shown) [Compound 70] | < 100 | 1000 to 10000
COc1cc2nccc(Oc3ccc(NC(=O)c4nn(CC5CCCC5)cc4OCC(F)(F)F)nc3)c2cc1OC [Compound 71] | < 100 | 1000 to 10000
COc1cc2nccc(Oc3ccc(NC(=O)c4nn(CC5CCNC5)cc4OCC(F)(F)F)nc3)c2cc1OC (stereo not shown) [Compound 72] | < 100 | 1000 to 10000
COc1cc2nccc(Oc3ccc(NC(=O)c4nn(CC5CNC5)cc4OCC(F)(F)F)nc3)c2cc1OC [Compound 73] | 100 to 500 | 1000 to 10000
COc1cc2nccc(Oc3ccc(NC(=O)c4nn(C5CCNC5)cc4OCC(F)(F)F)c(F)c3)c2cc1OC (stereo not shown) [Compound 74] | 100 to 500 | 1000 to 10000
COc1cc2nccc(Oc3ccc(NC(=O)c4nn(CCN)cc4OCC(F)(F)F)c(F)c3)c2cc1OC [Compound 75] | 100 to 500 | 1000 to 10000
COc1cc2nccc(Oc3ccc(NC(=O)c4nn(CC(C)O)cc4OCC(F)(F)F)c(F)c3)c2cc1OC (stereo not shown) [Compound 76] | < 100 | 1000 to 10000
COc1cc2nccc(Oc3ccc(NC(=O)c4nn(CCC(F)(F)F)cc4OCC4CCC4)nc3)c2cc1OC [Compound 166] | < 100 | 1000 to 10000
CCCn1cc(OCC2CCC2)c(C(=O)Nc2ccc(Oc3ccnc4cc(OC)c(OC(F)(F)F)cc34)cn2)n1 [Compound 167] | < 100 | 1000 to 10000
COc1cc2nccc(Oc3ccc(NC(=O)c4nn(CCNC5CC5)cc4OCC(F)(F)F)nc3)c2cc1OC [Compound 168] | < 100 | < 1000
COc1cc2nccc(Oc3ccc(NC(=O)c4nn(CC5CCN(C)C5)cc4OCC(F)(F)F)nc3)c2cc1OC (stereo not shown) [Compound 169] | < 100 | < 1000
